Read-outs that look alike come from different tables or passages of the source.
What was measured:
[1] = Method: Supercritical applications using CO2 typically operate at temperatures between above 32° C. and pressures above about 1,070 psi.
Solubility in water = format: physicochemical
Remark: listed apart in the source
[2] = Solubility in common organic solvents; format: physicochemical; settings: such as dichloromethane and acetone
Method: This example details the synthesis of a tetrabutyl ammonium molten salt of the amide having chemical formula III above. One-tenth of a mole (50 g) of the sodium salt of the amide-sulfonate salt having chemical structure III above (with R2 and R4 being CH2CH3, R1 and R5 each being a 2-ethylhexyl group, and R3 being CH2) was dissolved in 250 mL of dichloromethane, and one-tenth mole (32 g) of tetrabutyl ammonium bromide was added as a solid. The mixture was stirred for a day, after which time the solution was filtered first through filter paper and then through a short plug of silica gel. The eluted dichloromethane solution was quickly washed with water, dried over magnesium sulfate, and the solvent removed in vacuo, leaving the desired product in high yield (64 g, 89%). The product salt is soluble in both water and in several common organic solvents, such as dichloromethane and acetone. The melting range of the resulting salt was less than about 30° C. because the product was a viscous oil at room temperature. The product salt included Bis (N-ethyl-N-(2-ethylhexyl)sulfosuccinate diamide) anion paired with tetrabutyl ammonium cation.

## CCCCC(CC)COC(=O)CC(C(=O)OCC(CC)CCCC)S(=O)(=O)[O-].CCCC[N+](CCCC)(CCCC)CCCC (stereo not drawn) [Example 1, tetrabutylammonium docusate]
[1]
  Solubility in supercritical carbon dioxide (CO2): soluble

## CCCCC(CC)COC(=O)CC(C(=O)OCC(CC)CCCC)S(=O)(=O)[O-].CCCC[N+](C)(CCCC)CCCC (stereo not drawn) [Example 2, Me(n-Bu)3N Docusate]
Solubility in water
  Solubility in water: Hydrophobic

## CCCCC(CC)COC(=O)CC(C(=O)OCC(CC)CCCC)S(=O)(=O)[O-].CCCCC(CC)COC(=O)CC(C(=O)OCC(CC)CCCC)S(=O)(=O)[O-].C[N+](C)(C)CCCCCC[N+](C)(C)C (stereo not drawn) [Example 3, Me3N(CH2)6NMe3 Docusate]
Solubility in water
  Solubility in water: Hydrophobic

## CCCCC(CC)COC(=O)CC(C(=O)OCC(CC)CCCC)S(=O)(=O)[O-].CC[N+](CC)(CC)CC (stereo not drawn) [Example 5, Et4N Docusate]
Solubility in water
  Solubility in water: miscible

## CCCCC(CC)COC(=O)CC(C(=O)OCC(CC)CCCC)S(=O)(=O)[O-].CCCCCCn1cc[n+](C)c1 (stereo not drawn) [Example 6, 1-n-hexyl-3-methyl imidazolium docusate]
Addition of additional water to the gel, followed by agitation
  Phase behaviour on contact with water: formation of two phases
Contacted with 40 volume percent or less of water, even after agitation
  Phase behaviour on contact with water: formation of two phases
Contacted with 50 volume percent water, agitation
  Phase behaviour on contact with water: stiff, visibly monophasic gel

## CCCCC(CC)CN(CC)C(=O)CC(C(=O)N(CC)CC(CC)CCCC)S(=O)(=O)[O-].CCCC[N+](CCCC)(CCCC)CCCC (stereo not drawn) [Example 11]
Solubility in water
  Solubility in water: soluble
[2]
  Solubility in several common organic solvents: soluble

Source: US7750166B2, “Ionic liquids containing a sulfonate anion” (University of South Alabama, priority 2002, dated 2010)
